Assay results taken from patent publication US9499537B2, “Antiviral pyrrolopyridine derivatives and method for preparing the same” (KOREA RESEARCH INSTITUTE OF CHEMICAL TECHNOLOGY, priority 2011, dated 2016).
Read-outs that look alike come from different tables or passages of the source.

System: MT-4 cells
Assay: Cytotoxicity test in MT-4 cells (MTT method)
Assay type: cell-based
Method: In order to look into the HIV-1 inhibition effects of the compound of the present invention, an in vitro test for HIV-1 inhibition effects was carried out as follows according to a known method (H. Tanaka et al., J. Med. Chem., 1991, 34, 349). MT-4 cells were used as host cells, and the degree of the compound of the present invention inhibiting the cytotoxicity of the virus-infected MT-4 cells was investigated.
First, MT-4 cells were diffused at a concentration of 1×10^4 cell/well to a culture medium, and HIV-1 was inoculated so that the concentration was 500 TCI50 (concentration at which 50% of the cell is infected)/well. Immediately after the inoculation, the cell dispersion was transferred in 100 μL each to a flat microtiter plate in which the sample of the compound of the present invention was placed. The sample was incubated for approximately for 4 to 5 days at […], and the virus suppression effect was determined using an MTT method. In addition, the cytotoxicity was also determined by measuring the survivability of the experimentally virus-infected cells using an MTT method. As a comparative compound, azidothymidine (AZT) and raltegravir were used.

SMILES	CC60 (μM) ** : concentration at 50% cell damage with respect to MT-4 cells (human)	CC60 (μM) ** : concentration at 50% cell damage with respect to MT-4 cells
Cc1nc2c(ccn2C)c(-c2ccc(Cl)cc2)c1[C@H](OC(C)(C)C)C(=O)O [Example 34, (S)-2-Tert-butoxy-2-(4-(4-chlorophenyl)-1,6-dimethyl-1H-pyrrolo[2,3-b]pyridin-5-yl)acetic acid]	78 µM	–
Cc1nc2c(c(C)c(C)n2Cc2ccccn2)c(-c2ccc(Cl)cc2)c1C(OC(C)(C)C)C(=O)O (stereo not drawn) [Example 13, 2-Tert-butoxy-2-(4-(4-chlorophenyl)-2,3,6-trimethyl-1-(pyridin-2-ylmethyl)-1H-pyrrolo[2,3-b]pyridin-5-yl)acetic acid]	85.91 µM	–
COc1ccc(Cn2c(C)c(C)c3c(-c4ccc(Cl)cc4)c(C(OC(C)(C)C)C(=O)O)c(C)nc32)cc1 (stereo not drawn) [Example 9, 2-Tert-butoxy-2-(4-(4-chlorophenyl)-1-(4-methoxybenzyl)-2,3,6-trimethyl-1H-pyrrolo[2,3-b]pyridin-5-yl)acetic acid]	18.04 µM	–
Cc1nc2c(c(C)c(C)n2Cc2cncnc2)c(-c2ccc(Cl)cc2)c1[C@H](OC(C)(C)C)C(=O)O [Example 55, (S)-2-(Tert-butoxy)-2-(4-(4-chlorophenyl)-2,3,6-trimethyl-1-(pyrimidin-5-ylmethyl)-1H-pyrrolo[2,3-b]pyridin-5-yl)acetic acid]	64.73 µM	–
Cc1nc2c(c(C)c(C)n2C)c(-c2ccc3c(c2Cl)CCCO3)c1[C@H](OC(C)(C)C)C(=O)O [Example 72, (S)-2-(tert-butoxy)-2-((R)-4-(5-chlorochroman-6-yl)-1,2,3,6-tetramethyl-1H-pyrrolo[2,3-b]pyridin-5-yl)acetic acid]	–	16.18 µM
Cc1nc2c(c(C)c(C)n2Cc2cccnc2)c(-c2ccc(Cl)cc2)c1C(OC(C)(C)C)C(=O)O (stereo not drawn) [Example 12, 2-Tert-butoxy-2-(4-(4-chlorophenyl)-2,3,6-trimethyl-1-(pyridin-3-ylmethyl)-1H-pyrrolo[2,3-b]pyridin-5-yl)acetic acid]	56.14 µM	–
CCn1c(C)c(C)c2c(-c3ccc(Cl)cc3)c(C(OC(C)(C)C)C(=O)O)c(C)nc21 (stereo not drawn) [Example 2, 2-Tert-butoxy-2-(4-(4-chlorophenyl)-1-ethyl-2,3,6-trimethyl-1H-pyrrolo[2,3-b]pyridin-5-yl)acetic acid]	>233 µM	–
Cc1cccc(Cn2c(C)c(C)c3c(-c4ccc(Cl)cc4)c(C(OC(C)(C)C)C(=O)O)c(C)nc32)n1 (stereo not drawn) [Example 14, 2-Tert-butoxy-2-(4-(4-chlorophenyl)-2,3,6-trimethyl-1-((6-methylpyridin-2-yl)methyl)-1H-pyrrolo[2,3-b]pyridin-5-yl)acetic acid]	36.6 µM	–
Cc1nc2c(c(C)c(C)n2CCN2CCCC2=O)c(-c2ccc(Cl)cc2)c1[C@H](OC(C)(C)C)C(=O)O [Example 70, (S)-2-(Tert-butoxy)-2-(4-(4-chlorophenyl)-2,3,6-trimethyl-1-(2-(2-oxopyrrolidin-1-yl)ethyl)-1H-pyrrolo[2,3-b]pyridin-5-yl)acetic acid]	49.2 µM	–
Cc1nc2c(c(C)c(C)n2CC2CCC2)c(-c2ccc(Cl)cc2)c1[C@H](OC(C)(C)C)C(=O)O [Example 48, (S)-2-(Tert-butoxy)-2-(4-(4-chlorophenyl)-1-(cyclobutylmethyl)-2,3,6-trimethyl-1H-pyrrolo[2,3-b]pyridin-5-yl)acetic acid]	14.22 µM	–
Cc1nc2c(c(C)c(C)n2CC2CC2(F)F)c(-c2ccc(Cl)cc2)c1[C@H](OC(C)(C)C)C(=O)O (stereo partly drawn) [Example 69, (S)-2-(Tert-butoxy)-2-(4-(4-chlorophenyl)-1-((2,2-difluorocyclopropyl)methyl)-2,3,6-trimethyl-1H-pyrrolo[2,3-b]pyridin-5-yl)acetic acid]	17.55 µM	–
Cc1nc2c(c(C)c(C)n2CC2CCCCC2)c(-c2ccc(Cl)cc2)c1[C@H](OC(C)(C)C)C(=O)O [Example 50, (S)-2-(Tert-butoxy)-2-(4-(4-chlorophenyl)-1-(cyclohexylmethyl)-2,3,6-trimethyl-1H-pyrrolo[2,3-b]pyridin-5-yl)acetic acid]	10.32 µM	–
COCCn1c(C)c(C)c2c(-c3ccc(Cl)cc3)c([C@H](OC(C)(C)C)C(=O)O)c(C)nc21 [Example 78, (S)-2-(tert-butoxy)-2-(4-(4-chlorophenyl)-1-(2-methoxyethyl)-2,3,6-trimethyl-1H-pyrrolo[2,3-b]pyridin-5-yl)acetic acid]	18.36 µM	–
Cc1nc2c(c(C)c(C)n2Cc2ccsc2)c(-c2ccc(Cl)cc2)c1[C@H](OC(C)(C)C)C(=O)O [Example 43, (S)-2-(Tert-butoxy)-2-(4-(4-chlorophenyl)-2,3,6-trimethyl-1-(thiophen-3-ylmethyl)-1H-pyrrolo[2,3-b]pyridin-5-yl)acetic acid]	17.74 µM	–
Cc1nc2c(c(C)c(C)n2Cc2ccc(F)cc2)c(-c2ccc(Cl)cc2)c1C(OC(C)(C)C)C(=O)O (stereo not drawn) [Example 8, 2-Tert-butoxy-2-(4-(4-chlorophenyl)-1-(4-fluorobenzyl)-2,3,6-trimethyl-1H-pyrrolo[2,3-b]pyridin-5-yl)acetic acid]	12.8 µM	–
Cc1nc2c(c(C)c(C)n2Cc2ccn(C)n2)c(-c2ccc(Cl)cc2)c1[C@H](OC(C)(C)C)C(=O)O [Example 79, (S)-2-(tert-butoxy)-2-(4-(4-chlorophenyl)-2,3,6-trimethyl-1-((1-methyl-1H-pyrazol-3-yl)methyl)-1H-pyrrolo[2,3-b]pyridin-5-yl)acetic acid]	25.09 µM	–
CCn1c(C)c(C)c2c(-c3ccc(Cl)cc3)c([C@@H](OC(C)(C)C)C(=O)O)c(C)nc21 [Example 33, (R)-2-tert-butoxy-2-(4-(4-chlorophenyl)-1-(ethyl)-2,3,6-trimethyl-1H-pyrrolo[2,3-b]pyridin-5-yl)acetic acid]	25.5 µM	–
CCn1c(C)c(C)c2c(-c3ccc(OC)cc3)c(C(OC(C)(C)C)C(=O)O)c(C)nc21 (stereo not drawn) [Example 41, 2-(Tert-butoxy)-2-(1-ethyl-4-(4-methoxyphenyl)-2,3,6-trimethyl-1H-pyrrolo[2,3-b]pyridin-5-yl)acetic acid]	31.49 µM	–
Cc1nc2c(c(C)c(C)n2CC(=O)O)c(-c2ccc(Cl)cc2)c1[C@H](OC(C)(C)C)C(=O)O [Example 57, (S)-2-(Tert-butoxy)-2-(1-carboxymethyl)-(4-(4-chlorophenyl)-2,3,6-trimethyl-1H-pyrrolo[2,3-b]pyridin-5-yl)acetic acid]	>217.9 µM	–
Cc1nc2c(c(C)c(C)n2CCCC#N)c(-c2ccc(Cl)cc2)c1[C@H](OC(C)(C)C)C(=O)O [Example 60, (S)-2-(Tert-butoxy)-2-(4-(4-chlorophenyl)-1-(3-cyanopropyl)-2,3,6-trimethyl-1H-pyrrolo[2,3-b]pyridin-5-yl)acetic acid]	18.23 µM	–
Cc1nc2c(c(C)c(C)n2C)c(-c2ccc(Cl)cc2)c1[C@@H](OC(C)(C)C)C(=O)O [Example 27, (R)-2-tert-butoxy-2-(4-(4-chlorophenyl)-1,2,3,6-tetramethyl-1H-pyrrolo[2,3-b]pyridin-5-yl)acetic acid]	29 µM	–
Cc1nc2c(c(C)c(C)n2Cc2cccc(Cl)c2)c(-c2ccc(Cl)cc2)c1C(OC(C)(C)C)C(=O)O (stereo not drawn) [Example 6, 2-Tert-butoxy-2-(1-(3-chlorobenzyl)-4-(4-chlorophenyl)-2,3,6-trimethyl-1H-pyrrolo[2,3-b]pyridin-5-yl)acetic acid]	9.74 µM	–
Cc1nc2c(c(C)c(C)n2CC(=O)N(C)C)c(-c2ccc(Cl)cc2)c1[C@H](OC(C)(C)C)C(=O)O [Example 51, (S)-2-(Tert-butoxy)-2-(4-(4-chlorophenyl)-1-(2-(dimethylamino)-2-oxoethyl)-2,3,6-trimethyl-1H-pyrrolo[2,3-b]pyridin-5-yl)acetic acid]	96.68 µM	–
CCn1c(C)c(C)c2c(-c3ccc(C#N)cc3)c(C(OC(C)(C)C)C(=O)O)c(C)nc21 (stereo not drawn) [Example 40, 2-Tert-butoxy-2-(4-(4-cyanophenyl)-1-ethyl-2,3,6-trimethyl-1H-pyrrolo[2,3-b]pyridin-5-yl)acetic acid]	91.58 µM	–
Cc1nc2c(c(C)c(C)n2C)c(-c2ccc3c(c2Cl)CCCO3)c1[C@H](OC(C)(C)C)C(=O)O [Example 73, (S)-2-(tert-butoxy)-2-((S)-4-(5-chlorochroman-6-yl)-1,2,3,6-tetramethyl-1H-pyrrolo[2,3-b]pyridin-5-yl)acetic acid]	25.1 µM	–
Cc1nc2c(c(C)c(C)n2CCN(C)C)c(-c2ccc(Cl)cc2)c1[C@H](OC(C)(C)C)C(=O)O [Example 65, (S)-2-(Tert-butoxy)-2-(4-(4-chlorophenyl)-1-(2-dimethylaminoethyl)-2,3,6-trimethyl-1H-pyrrolo[2,3-b]pyridin-5-yl)acetic acid]	70.86 µM	–
Cc1nc2c(c(C)c(C)n2CC#N)c(-c2ccc(Cl)cc2)c1C(OC(C)(C)C)C(=O)O (stereo not drawn) [Example 22, 2-Tert-butoxy-2-(4-(4-chlorophenyl)-1-cyanomethyl-2,3,6-trimethyl-1H-pyrrolo[2,3-b]pyridin-5-yl)acetic acid]	114.47 µM	–
